In one series the test system is AIM2 inflammasome. The series is described as follows: AIM2 inflammasome selectivity assay, J774A.1 cells, LPS/poly. To be noted: 10 μM compound, LPS (1 μg/mL) 1 h, poly(dA:dT) (4 μg/ml) 8 h. Format: cell-based, murine.
A further series deals with NLRP3 inflammasome. The series is described as follows: IL-1β release from mouse peritoneal macrophages upon LPS/ATP challenge. Format: cell-based.
The next series has as its system NLRC4 inflammasome. The series is described as follows: NLRC4 inflammasome selectivity assay, J774A.1 cells, LPS/flagellin, IL-1β ELISA. Format: cell-based, murine. The note with it: 10 μM compound, LPS (1 μg/mL) 1 h, flagellin (1 μg/mL) 6 h.
In another series the test system is hCMEC/D3 cells. The series is described as follows: Cytotoxicity on hCMEC/D3 cells. The note with it: 20 μM, 2 h.

We go through two compounds from publication PMC6856409 (Journal of medicinal chemistry, 2019).

For `C#CCNS(=O)(=O)c1ccc(CCN(Cc2cc(Cl)ccc2OC)C(=O)C=C)cc1` [Compound 2, N-(5-chloro-2-methoxybenzyl)-N-(4-(N-(prop-2-yn-1-yl)sulfamoyl)phenethyl)acryl-amide], the “effect on IL-1β production by AIM2 inflammasome” value in the series with AIM2 inflammasome is on record as “significantly inhibited”. Further, the “inhibitory activity on IL-1β release” value with NLRP3 inflammasome is “confirmed”. The “effect on IL-1β production by NLRC4 inflammasome” value with NLRC4 inflammasome is given as “significantly inhibited”.

`C#CCNS(=O)(=O)c1ccc(CCN(Cc2cc(Cl)ccc2OCCC)C(=O)Cc2ccsc2)cc1` [Compound 17, N-(5-chloro-2-propoxybenzyl)-N-(4-(N-(prop-2-yn-1-yl)sulfamoyl)phenethyl)-2-(thio-phen-3-yl)acetamide]: in the series with AIM2 inflammasome, the “effect on IL-1β production by AIM2 inflammasome” value is given as “did not significantly interfere”. Moreover, the “cytotoxicity (cell viability)” value with hCMEC/D3 cells is recorded as “did not show significant toxic effects”. In the series on NLRC4 inflammasome, the “effect on IL-1β production by NLRC4 inflammasome” value was “did not significantly interfere”.
